The values that follow come from article PMC10269561, “Absence of Clinically Meaningful Drug-Drug Interactions with Rezafungin: Outcome of Investigations” (Microbiology Spectrum, 2023).

The nature of data set [1]: Study 2 safety and tolerability (TEAEs). Here is the method:
After screening, subjects were admitted to the CRU on day −17 (prior to the first rezafungin dose) and were discharged on day 22. Rezafungin was dosed via i.v. infusion over 1 h at 400 mg on day 1 and 200 mg on day 8 and day 15. The oral drugs to be tested for interactions were each administered twice on a schedule designed to allow washout between doses: once alone and once while receiving rezafungin (Fig. 4B). The total duration of treatment was approximately 84 days, which included 45 days of screening and 39 days of treatment in the CRU.
In both studies, the safety population included all subjects who received any amount of the study drug. In study 1, the rezafungin safety population included all subjects who received any amount of rezafungin. Safety assessments included vital signs (temperature, heart rate, blood pressure, and respiratory rate), safety laboratory evaluations (hematology assessment, serum chemistry panel, and urinalysis), physical examinations (complete and symptom directed), and EKGs.
(§1) Microbiology Spectrum Supplementary materials
Abbreviations: TEAE = treatment-emergent adverse event.
N = number of subjects in the safety population; n = number of subjects in a sample.
Notes: Each TEAE was counted only once for each subject within each System Organ Class and Preferred Term.

Data set [2] addresses T1, CYP2C8 (Homo sapiens, UniProt P10632).
T1 sequence (P10632 1-490): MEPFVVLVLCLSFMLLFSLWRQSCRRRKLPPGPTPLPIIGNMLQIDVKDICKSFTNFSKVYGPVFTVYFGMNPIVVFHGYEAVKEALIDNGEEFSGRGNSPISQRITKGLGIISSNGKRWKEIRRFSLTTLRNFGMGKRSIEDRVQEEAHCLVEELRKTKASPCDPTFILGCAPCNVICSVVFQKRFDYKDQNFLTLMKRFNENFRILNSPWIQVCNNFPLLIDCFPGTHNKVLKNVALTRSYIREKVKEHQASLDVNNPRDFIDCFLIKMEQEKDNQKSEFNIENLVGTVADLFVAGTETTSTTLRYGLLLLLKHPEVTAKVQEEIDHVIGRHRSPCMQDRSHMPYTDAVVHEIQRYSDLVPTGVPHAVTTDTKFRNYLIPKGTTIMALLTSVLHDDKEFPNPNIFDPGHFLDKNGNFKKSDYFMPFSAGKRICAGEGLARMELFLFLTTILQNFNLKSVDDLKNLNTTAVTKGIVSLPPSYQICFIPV
The experiment in a line: NC-012 CYP450 inhibition screening, recombinant CYP2C8. Format: in vitro ADME. Conditions: fluorogenic substrate, recombinant human CYP.
Description: as §1
(§2) Table S 4Summary of initial in vitro assessments […]
(§3) whether rezafungin can induce CYP isoforms 1A2, 2B6, or 3A4. mRNA expression) of CYP1A2 and CYP2B6, and, in the case of […]
(§4) Abbreviations: ABC = ATP binding cassette; BCRP = breast cancer resistance protein; BSEP = bile salt export pump; CYP = cytochrome P450; MATE = multidrug and toxic compound extrusion; MDCK = Madin-Darby canine kidney; MDR = multidrug resistance protein; mRNA = messenger ribonucleic acid; OAT = organic anion transporter; OATP = organic anion transporter protein; OCT – organic cation transporter; OCTN = organic cation transporter novel; P-gp = P-glycoprotein; SLC = solute carrier.

The target in the next data set is human OATP1B1 (Homo sapiens, UniProt Q9Y6L6). The experiment in a line: NC-052 OATP1B1 substrate study in transiently transfected HEK293 cells. Format: in vitro ADME.
Description: as §1, §2, §3, §4

The next data set addresses OCTN1 (Homo sapiens, UniProt Q9H015). Nature of the data set: NC-160 substrate interaction, OCTN1. Conditions: uptake SLC transporter. Format: in vitro ADME.
Description: as §1, §2, §3, §4

The target of data set [3] is T2, CYP2C19 (Homo sapiens, UniProt P33261). Nature of the data set: NC-012 CYP450 inhibition screening, recombinant CYP2C19. Format: in vitro ADME. As to conditions: 10 μM, fluorogenic substrate, recombinant human CYP.
Description: as §1, §2, §3, §4

For another data set, the target named is BSEP (Homo sapiens, UniProt O95342). Nature of the data set: NC-152 BSEP inhibition in membrane vesicles. Format: in vitro ADME.
Description: as §1, §2, §3, §4

The target in another data set is CYP2B6 (Homo sapiens, UniProt P20813). Nature of the data set: NC-012 CYP450 inhibition screening, recombinant CYP2B6. Format: in vitro ADME. As to conditions: 10 μM, fluorogenic substrate, recombinant human CYP.
Description: as §1, §2, §3, §4

Data set [4] concerns the target T2, CYP2C19. The experiment in a line: NC-153 time-dependent inhibition in human liver microsomes, CYP2C19. As to conditions: 0.1 to 25 μM. Format: in vitro ADME.
Description: as §1, §2, §3, §4

For data set [5], the target named is T1, CYP2C8. The experiment in a line: NC-153 time-dependent inhibition in human liver microsomes, CYP2C8. Format: in vitro ADME. Details: in human liver microsomal preparations; from tissue; host or cells: human liver microsomes. Conditions: 0.1 to 25 μM.
Description: as §1, §2, §3, §4

Numbered stars: 1 amine (or outer) side, 2 acyl side, 3 side chain; on linkers, the order of the positions; unused ones are H or OH. Bridge positions count the residues as written; N and C are the ends. Square brackets hold non-standard residues; d marks the D form. Peptide text beside a SMILES is read from it. * marks the point of attachment. Orn(4R-OH,5R-OCH2CH2NMe3+) = C[N+](C)(C)CCO[C@@H](N[*:3])[C@H](O)C[C@H](N[*:1])C(=O)[*:2]; pTerphenylCO(4''-OnC5H11) = CCCCCOc1ccc(-c2ccc(-c3ccc(C(=O)*)cc3)cc2)cc1; hTyr(3S-OH,4S-OH) = N[C@H](C(=O)O)[C@H](O)[C@@H](O)c1ccc(O)cc1; Pro(3S-OH,4S-Me) = C[C@H]1CN[C@H](C(=O)O)[C@H]1O; Hyp = O=C(O)[C@@H]1C[C@@H](O)CN1 Where only a bound is given, the exact number is not on record here.

What is called inhibition is the share of the control response that was lost under treatment.

T2 sequence (P33261 whole entry): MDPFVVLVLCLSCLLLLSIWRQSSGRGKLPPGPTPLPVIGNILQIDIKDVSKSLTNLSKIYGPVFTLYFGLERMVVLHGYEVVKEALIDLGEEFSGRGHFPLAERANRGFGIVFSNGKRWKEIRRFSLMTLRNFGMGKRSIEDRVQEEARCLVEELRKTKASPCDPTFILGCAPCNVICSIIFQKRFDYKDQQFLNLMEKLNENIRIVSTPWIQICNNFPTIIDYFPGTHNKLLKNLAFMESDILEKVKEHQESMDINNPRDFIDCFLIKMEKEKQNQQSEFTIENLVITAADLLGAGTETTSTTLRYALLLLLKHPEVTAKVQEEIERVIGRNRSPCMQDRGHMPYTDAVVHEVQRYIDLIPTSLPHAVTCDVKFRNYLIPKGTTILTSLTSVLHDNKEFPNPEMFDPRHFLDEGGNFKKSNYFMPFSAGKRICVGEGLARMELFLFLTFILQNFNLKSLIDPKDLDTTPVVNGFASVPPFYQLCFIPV
human OATP1B1, sequence (Q9Y6L6 whole entry): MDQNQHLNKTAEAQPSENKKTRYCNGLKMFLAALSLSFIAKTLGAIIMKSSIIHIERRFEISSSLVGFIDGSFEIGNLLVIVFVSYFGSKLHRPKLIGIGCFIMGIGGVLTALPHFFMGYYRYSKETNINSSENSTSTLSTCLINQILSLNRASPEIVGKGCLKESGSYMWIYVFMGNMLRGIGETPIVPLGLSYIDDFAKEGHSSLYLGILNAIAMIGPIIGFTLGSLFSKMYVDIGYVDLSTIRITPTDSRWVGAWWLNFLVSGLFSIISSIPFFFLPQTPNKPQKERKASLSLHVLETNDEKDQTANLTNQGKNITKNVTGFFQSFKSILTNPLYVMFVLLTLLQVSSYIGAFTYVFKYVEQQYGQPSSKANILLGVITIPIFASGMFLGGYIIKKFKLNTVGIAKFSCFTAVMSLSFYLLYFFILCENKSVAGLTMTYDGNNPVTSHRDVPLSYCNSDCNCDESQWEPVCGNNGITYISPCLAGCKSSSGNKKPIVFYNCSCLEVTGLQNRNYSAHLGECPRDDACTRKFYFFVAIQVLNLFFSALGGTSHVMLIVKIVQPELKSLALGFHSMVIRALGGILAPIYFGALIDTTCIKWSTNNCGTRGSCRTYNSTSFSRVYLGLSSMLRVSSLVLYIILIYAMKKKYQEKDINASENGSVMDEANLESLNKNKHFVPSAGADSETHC
BSEP, sequence (O95342 whole entry): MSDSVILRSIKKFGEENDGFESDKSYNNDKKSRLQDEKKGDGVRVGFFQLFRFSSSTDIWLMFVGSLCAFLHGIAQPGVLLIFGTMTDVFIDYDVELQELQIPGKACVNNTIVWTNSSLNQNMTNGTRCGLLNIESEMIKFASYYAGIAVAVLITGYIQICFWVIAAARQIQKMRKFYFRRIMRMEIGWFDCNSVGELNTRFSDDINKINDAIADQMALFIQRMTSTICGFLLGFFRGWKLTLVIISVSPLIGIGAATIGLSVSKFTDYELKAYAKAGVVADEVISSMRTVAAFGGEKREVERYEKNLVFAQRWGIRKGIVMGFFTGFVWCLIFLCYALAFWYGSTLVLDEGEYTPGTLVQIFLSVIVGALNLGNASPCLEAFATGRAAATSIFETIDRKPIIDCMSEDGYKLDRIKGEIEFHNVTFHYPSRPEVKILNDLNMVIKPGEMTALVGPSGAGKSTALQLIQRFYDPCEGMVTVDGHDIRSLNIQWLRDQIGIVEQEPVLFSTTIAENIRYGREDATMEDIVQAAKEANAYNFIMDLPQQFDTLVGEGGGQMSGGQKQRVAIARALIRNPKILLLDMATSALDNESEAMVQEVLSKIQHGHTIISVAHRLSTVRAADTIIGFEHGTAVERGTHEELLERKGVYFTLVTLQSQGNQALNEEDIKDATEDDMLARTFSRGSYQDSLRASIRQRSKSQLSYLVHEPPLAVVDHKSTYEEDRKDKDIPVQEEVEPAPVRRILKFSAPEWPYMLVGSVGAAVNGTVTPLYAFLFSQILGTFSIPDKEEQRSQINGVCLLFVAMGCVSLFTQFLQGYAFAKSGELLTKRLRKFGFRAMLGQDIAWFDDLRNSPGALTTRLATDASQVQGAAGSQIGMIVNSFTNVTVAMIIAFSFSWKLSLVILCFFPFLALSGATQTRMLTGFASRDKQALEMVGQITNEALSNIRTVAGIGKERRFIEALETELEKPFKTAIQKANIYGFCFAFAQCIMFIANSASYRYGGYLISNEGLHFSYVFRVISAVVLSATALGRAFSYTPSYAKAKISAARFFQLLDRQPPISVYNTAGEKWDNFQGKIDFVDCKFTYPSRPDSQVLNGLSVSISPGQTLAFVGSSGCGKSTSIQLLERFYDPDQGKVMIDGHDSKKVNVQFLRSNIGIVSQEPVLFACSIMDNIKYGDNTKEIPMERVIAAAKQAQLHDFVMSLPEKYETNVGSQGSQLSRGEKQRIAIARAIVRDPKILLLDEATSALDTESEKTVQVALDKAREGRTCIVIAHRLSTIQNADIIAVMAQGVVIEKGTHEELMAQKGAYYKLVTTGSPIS
OCTN1, sequence (Q9H015 whole entry): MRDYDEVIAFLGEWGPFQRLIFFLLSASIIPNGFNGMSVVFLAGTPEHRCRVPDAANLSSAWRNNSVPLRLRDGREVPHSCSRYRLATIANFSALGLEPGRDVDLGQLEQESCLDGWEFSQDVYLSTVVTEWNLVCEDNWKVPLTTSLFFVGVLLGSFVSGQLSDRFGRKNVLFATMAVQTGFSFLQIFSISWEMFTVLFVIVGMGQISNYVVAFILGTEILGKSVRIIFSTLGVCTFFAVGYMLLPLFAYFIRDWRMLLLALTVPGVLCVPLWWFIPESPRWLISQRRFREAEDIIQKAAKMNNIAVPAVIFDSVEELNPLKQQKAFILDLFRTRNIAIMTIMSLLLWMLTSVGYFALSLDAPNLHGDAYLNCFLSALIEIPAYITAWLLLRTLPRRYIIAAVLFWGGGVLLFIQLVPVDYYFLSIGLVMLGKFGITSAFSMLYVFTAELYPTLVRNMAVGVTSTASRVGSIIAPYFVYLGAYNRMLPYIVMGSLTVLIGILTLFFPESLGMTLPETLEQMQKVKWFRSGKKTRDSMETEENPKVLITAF
CYP2B6, sequence (P20813 whole entry): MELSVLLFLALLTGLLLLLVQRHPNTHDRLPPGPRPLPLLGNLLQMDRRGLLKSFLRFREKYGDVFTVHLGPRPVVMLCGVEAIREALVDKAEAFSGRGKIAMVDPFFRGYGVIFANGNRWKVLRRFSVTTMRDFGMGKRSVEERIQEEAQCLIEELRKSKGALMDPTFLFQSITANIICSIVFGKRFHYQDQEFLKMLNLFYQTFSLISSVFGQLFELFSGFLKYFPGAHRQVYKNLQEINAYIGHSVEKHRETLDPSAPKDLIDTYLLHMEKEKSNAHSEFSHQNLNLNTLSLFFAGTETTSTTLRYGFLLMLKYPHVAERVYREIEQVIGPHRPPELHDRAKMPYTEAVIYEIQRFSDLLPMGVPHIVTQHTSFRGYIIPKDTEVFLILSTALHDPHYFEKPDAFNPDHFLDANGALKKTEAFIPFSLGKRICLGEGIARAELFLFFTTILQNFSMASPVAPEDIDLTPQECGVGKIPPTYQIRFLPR

With `CCCCCOc1ccc(-c2ccc(-c3ccc(C(=O)N[C@H]4C[C@@H](O)[C@@H](OCC[N+](C)(C)C)NC(=O)[C@@H]5[C@@H](O)[C@@H](C)CN5C(=O)[C@H]([C@@H](C)O)NC(=O)[C@H]([C@H](O)[C@@H](O)c5ccc(O)cc5)NC(=O)[C@@H]5C[C@@H](O)CN5C(=O)[C@H]([C@@H](C)O)NC4=O)cc3)cc2)cc1` [Rezafungin] ({pTerphenylCO(4''-OnC5H11)}-[Orn(4R-OH,5R-OCH2CH2NMe3+)]T[Hyp][hTyr(3S-OH,4S-OH)]T[Pro(3S-OH,4S-Me)]; lactam 1-C), in data set [1] (Study 2), the “deaths or serious adverse events” value is recorded as “no deaths or serious adverse events”. Further, the “severe TEAE deemed by the investigator to be related to the drug” value in [1] (Study 2, one subject each) was “abdominal pain”. For the same compound, the tolerability entry in data set [1] (once-weekly i.v. infusions, 400-mg loading dose followed by two 200-mg maintenance doses) is listed as “generally well tolerated”. Besides, the inhibition at 10 µM at CYP2C8 [2] was found to be 63%. For the same compound, at human OATP1B1, the “substrate of OATP1B1” value is “not to be a substrate” and the “uptake ratio, OATP1B1” value is listed as less than 2. The “substrate of OCTN1” value at OCTN1 is on record as “not a substrate”. Also, at CYP2C19 [3], the “inhibition of CYP2C19” value was “Minimal inhibition”. The “inhibitor of probe substrate transport mediated via BSEP” value on BSEP was “not”. Further, the “inhibition of CYP2B6” value on CYP2B6 is “Minimal inhibition”. For the same compound, the “time-dependent inhibitor of CYP2C19” value at CYP2C19 [4] is listed as “not a time-dependent inhibitor”. Besides, at CYP2C8 [5], the “time-dependent inhibitor of CYP2C8” value is “not a time-dependent inhibitor”.
